Converted amounts (≈) assume the structure as drawn. Like-named read-outs stand apart in the source and are kept apart here.
Experiments:
[1] = test system: Clostridium difficile ATCC BBA1870; assay: In vitro MIC, agar dilution, Clostridium difficile ATCC BBA1870; format: cell-based; details: Clostridioides difficile, ATCCBBA1870, 48 h, read-out: MIC values, Clostridium difficile ATCC BBA1870
[2] = test system: Clostridium difficile ATCC 700057; assay: In vitro MIC, agar dilution, Clostridium difficile ATCC 700057; format: cell-based; details: Clostridioides difficile, read-out: MIC values, Clostridium difficile ATCC 700057
[3] = test system: Clostridium difficile ATCC 630; assay: In vitro MIC, agar dilution, Clostridium difficile ATCC 630; format: cell-based; details: Clostridioides difficile, read-out: MIC values, Clostridium difficile ATCC 630
[4] = test system: Enterococcus faecalis ATCC19433; assay: Selectivity on intestinal probiotics, MIC, agar dilution; format: cell-based; details: read-out: MIC value, Enterococcus faecalis ATCC19433
Procedure: (§1) ATCC19435, Lactobacillus rhamnosus ATCC7469, Lactobacillus bulgaricus ATCC11842, and the test was performed using Brucella agar medium. The strains frozen at −80° C. were seeded in solid agar medium. The medium was placed in a 37° C. incubator and anaerobically cultivated for 24-48 h. […] For compound I-3 of the present invention, a high concentration (100× test concentration) of working solution was prepared and used on the same day, and 100% DMSO was used as the solvent. As for the preparation of each agar plate for each diluted concentration, 20 μl of high concentration working solution was mixed with 2 ml of melted Brucella agar with supplements (45-55° C.), and then added to a 6-well plate for solidification. 1% DMSO was used as growth control. On the day of the experiment, an appropriate amount of single bacterial colony was selected and suspended in physiological saline. A turbidity meter was used to adjust the turbidity of the bacterial solution to OD600=0.2, and thus the density was about 1×10^8 CFU/ml. 2 μl of such bacterial solution was directly seeded on a solid dilution agar plate of each compound. […] Then, all of the test plates were subjected to anaerobic cultivation at 35±2° C. for 48 h.

[5] = test system: Bifidobacterium bifidum CGMCC NO.1.5091; assay: as above; format: cell-based; details: read-out: MIC value, Bifidobacterium bifidum CGMCC NO.1.5091
Procedure: as §1

[6] = test system: Lactobacillus acidophilus ATCC4356; assay: as above; format: cell-based; details: read-out: MIC value, Lactobacillus acidophilus ATCC4356
Procedure: as §1

[7] = test system: Lactococcus lactis subsp. ATCC19435; assay: as above; format: cell-based; details: read-out: MIC value, Lactococcus lactis subsp. ATCC19435
Procedure: as §1

[8] = test system: Lactobacillus bulgaricus ATCC11842; assay: as above; format: cell-based; details: read-out: MIC value, Lactobacillus bulgaricus ATCC11842
Procedure: as §1

ATCC BAA-835 = assay: as above; format: cell-based; details: read-out: MIC value, ATCC BAA-835
Procedure: as §1

[9] = test system: Lactobacillus rhamnosus ATCC7469; assay: as above; format: cell-based; details: Lacticaseibacillus rhamnosus, read-out: MIC value, Lactobacillus rhamnosus ATCC7469
Procedure: as §1

[10] = test system: Clostridium difficile spores (ATCC 630 strain); assay: Treatment of Clostridium difficile infection in golden hamsters; format: in vivo; details: golden hamsters challenged with C. difficile spores; for time after drug withdrawal at which deaths occurred / began: drugs removed from the 21st day; for survival / mortality after drug withdrawal, observed until the 45th day: twice a day for 20 days (I-3 100 mg/kg, vancomycin 10 mg/kg, fidaxomicin 10 mg/kg, nitazoxanide 100 mg/kg)
Procedure: 60 of 5-week-old male golden hamsters, weighing 70-90 g, were purchased from Beijing Vital River Laboratory Animal Technology Co., Ltd. After one week of adaptive feeding, golden hamsters were randomly divided into six groups. The model group and four test groups were orally administrated 10 mg/kg clindamycin, while the blank group was given the same volume of normal saline, and this day was recorded as day −1. On day 0, the model group and the test groups were challenged with Clostridium difficile spores (ATCC 630 strain), and each hamster received 5E4 spores. The blank group was not treated. Starting from the first day, four test groups were administered 100 mg/kg of compound I-3 according to the present invention, 10 mg/kg of vancomycin, 10 mg/kg of fidaxomicin, and 100 mg/kg of nitazoxanide twice a day, respectively; the blank group and the model group were given equal amounts of normal saline for a total of 20 days. During this period, the changes in weight, the diarrhea, and the mortality of animals were observed. Starting from the 21st day, the drugs were removed, but the observation was continued until the 45th day.

[11] = ATCC700057, Brucella agar with supplements, anaerobic cultivation 48 h
[12] = ATCC630, Brucella agar with supplements, anaerobic cultivation 48 h
[13] = ATCC19433, probiotic strain, Brucella agar, anaerobic cultivation 48 h
[14] = CGMCC1, probiotic strain, Brucella agar, anaerobic cultivation 48 h
[15] = ATCC4356, probiotic strain, Brucella agar, anaerobic cultivation 48 h
[16] = ATCC19435, probiotic strain, Brucella agar, anaerobic cultivation 48 h
[17] = ATCC11842, probiotic strain, Brucella agar, anaerobic cultivation 48 h
[18] = probiotic strain, Brucella agar, anaerobic cultivation 48 h
[19] = ATCC7469, probiotic strain, Brucella agar, anaerobic cultivation 48 h

Structure (SMILES) | MIC [1] | MIC [2, 11] | MIC [3, 12] | MIC [4, 13] | MIC [5, 14] | MIC [6, 15] | MIC [7, 16] | MIC [8, 17] | MIC (ATCC BAA-835; [18]) | MIC [9, 19] | survival / mortality after drug withdrawal, observed until the 45th day [10] | also measured
CCCC(=O)Oc1ccccc1C(=O)Nc1ncc([N+](=O)[O-])s1 [Compound I-1] | 0.25 µg/mL (≈ 0.746 µM) | 0.25 µg/mL (≈ 0.746 µM) | 0.0625 µg/mL (≈ 0.186 µM) | – | – | – | – | – | – | – | – | –
CCCCCCCC(=O)Oc1ccccc1C(=O)Nc1ncc([N+](=O)[O-])s1 [Compound I-2] | 0.25 µg/mL (≈ 0.639 µM) | 0.25 µg/mL (≈ 0.639 µM) | 0.0625 µg/mL (≈ 0.16 µM) | – | – | – | – | – | – | – | – | –
CCCCCCCCCCCC(=O)Oc1ccccc1C(=O)Nc1ncc([N+](=O)[O-])s1 [Compound I-3] | 0.125 µg/mL (≈ 0.279 µM) | 0.0625 µg/mL (≈ 0.14 µM) | 0.0625 µg/mL (≈ 0.14 µM) | 256 µg/mL (≈ 572 µM) | 128 µg/mL (≈ 286 µM) | > 256 µg/mL | 256 µg/mL (≈ 572 µM) | > 256 µg/mL | 128 µg/mL (≈ 286 µM) | > 256 µg/mL | only one animal died | time after drug withdrawal at which deaths occurred / began [10]: 7 days
CCCCCCCCCCCCCC(=O)Oc1ccccc1C(=O)Nc1ncc([N+](=O)[O-])s1 [Compound I-4] | 0.25 µg/mL (≈ 0.526 µM) | 0.125 µg/mL (≈ 0.263 µM) | 0.0625 µg/mL (≈ 0.131 µM) | – | – | – | – | – | – | – | – | –
CCc1c(Cl)c(O)c(Cl)c(O)c1C(=O)O[C@H]1[C@H](O)[C@H](OC)[C@H](OC/C2=C\C=C\C[C@H](O)/C(C)=C/[C@H](CC)[C@@H](O[C@@H]3OC(C)(C)[C@@H](OC(=O)C(C)C)[C@H](O)[C@@H]3O)/C(C)=C/C(C)=C/C[C@@H]([C@@H](C)O)OC2=O)O[C@@H]1C [fidaxomicin] | – | – | – | 1 µg/mL (≈ 0.945 µM) | 4 µg/mL (≈ 3.78 µM) | 128 µg/mL (≈ 121 µM) | 64 µg/mL (≈ 60.5 µM) | 128 µg/mL (≈ 121 µM) | 1 µg/mL (≈ 0.945 µM) | 16 µg/mL (≈ 15.1 µM) | all of them died | time after drug withdrawal at which deaths occurred / began [10]: 15 days
CC(=O)Oc1ccccc1C(=O)Nc1ncc([N+](=O)[O-])s1 [nitazoxanide, Nitazoxanide] | 0.5 µg/mL (≈ 1.63 µM) | 0.125 µg/mL (≈ 0.407 µM) | 0.125 µg/mL (≈ 0.407 µM) | 64 µg/mL (≈ 208 µM) | 32 µg/mL (≈ 104 µM) | 64 µg/mL (≈ 208 µM) | 8 µg/mL (≈ 26 µM) | 64 µg/mL (≈ 208 µM) | 1 µg/mL (≈ 3.25 µM) | 256 µg/mL (≈ 833 µM) | four hamsters in the nitroxide group survived | –
CN[C@H](CC(C)C)C(=O)N[C@H]1C(=O)N[C@@H](CC(N)=O)C(=O)N[C@H]2C(=O)N[C@H]3C(=O)N[C@H](C(=O)N[C@H](C(=O)O)c4cc(O)cc(O)c4-c4cc3ccc4O)[C@H](O)c3ccc(c(Cl)c3)Oc3cc2cc(c3O[C@@H]2O[C@H](CO)[C@@H](O)[C@H](O)[C@H]2O[C@H]2C[C@](C)(N)[C@H](O)[C@H](C)O2)Oc2ccc(cc2Cl)[C@H]1O [vancomycin] | 1 µg/mL (≈ 0.69 µM) | – | – | – | – | – | – | – | – | – | all hamsters in the vancomycin group died | MIC ([4]; ATCC19433, 48 h): 4 µg/mL (≈ 2.76 µM); MIC ([5]; CGMCC1, 48 h): 4 µg/mL (≈ 2.76 µM); MIC ([6]; ATCC4356, 48 h): 4 µg/mL (≈ 2.76 µM); MIC ([7]; ATCC19435, 48 h): 4 µg/mL (≈ 2.76 µM); MIC ([8]; ATCC11842, 48 h): > 256 µg/mL; MIC (ATCC BAA-835; 48 h): 8 µg/mL (≈ 5.52 µM); MIC ([9]; ATCC7469, 48 h): 256 µg/mL (≈ 177 µM); MIC ([2]; ATCC700057, 48 h): 1 µg/mL (≈ 0.69 µM); MIC ([3]; ATCC630, 48 h): 2 µg/mL (≈ 1.38 µM)

From patent US20240300910A1, “NITROTHIAZOLE DERIVATIVE AND APPLICATION THEREOF” (CHENGDU BIOBEL BIOTECHNOLOGY CO., LTD., priority 2021, published 2024)
